Data taken from patent US5300629A, “Bactericidal and/or bacteriostatic peptides isolated from hemolymph of honeybees” (Plant Genetic Systems, N.V., priority 1987, dated 1994).
Where a SMILES comes first, the peptide text is derived from it.

Experiments:
Experiment in all cases: Inhibition zone assay
Format in all cases: cell-based
Salmonella Newport CD 94 = tested on: Salmonella Newport CD 94; design: key: --: "-" means that no inhibition has been found; conditions: I 10 ul
[1] = tested on: Flavobacterium devorans NRRL B-54; design: key: --: "-" means that no inhibition has been found; conditions: I and B 10 ul, L 5 ug
[2] = tested on: Streptococcus B CDC 55 460; design: key: --: "-" means that no inhibition has been found; conditions: I 10 ul
[3] = tested on: Citrobacter freundii ATCC 8090; design: key: --: "-" means that no inhibition has been found
[4] = tested on: Agrobacterium tumefaciens DSM 3129; conditions: I and B 10 ul, L 5 ug
[5] = tested on: Rhodococcus equi ATCC 25729; design: key: --: "-" means that no inhibition has been found; conditions: I and B 10 ul, L 5 ug
[6] = tested on: Pseudomonas paucimobilis ATCC 29837; conditions: L 5 ug
[7] = tested on: Xanthomonas campestris pv. graminis NCPPB 2700; design: key: --: "-" means that no inhibition has been found; conditions: I and B 10 ul, L 5 ug
[8] = tested on: Arthrobacter sp. NRRL B-3724
[9] = tested on: Bacillus thuringiensis DSM 3131; design: key: --: "-" means that no inhibition has been found; conditions: I and B 10 ul, L 5 ug
Shigella sonnei CQ26 = tested on: Shigella sonnei CQ26; design: key: --: "-" means that no inhibition has been found; conditions: I and B 10 ul
Experimental: (§1) Whole lymph or purified components, resuspended in PBS to a final volume equal to the starting material (heated lymph), was applied in 3 mm wells on agar plates seeded with the test organisms. Antibacterial activity was determined by measuring the growth-inhibition zones (in mm).

[10] = tested on: Corynebacterium michiganense pv. michiganense NCPPB 1573; design: key: --: "-" means that no inhibition has been found
Experimental: as §1

[11] = tested on: Clostridium difficile Bart 1924; design: key: --: "-" means that no inhibition has been found; conditions: I 10 ul
Experimental: as §1

Shigella flexneri CP 87 = tested on: Shigella flexneri CP 87; design: key: --: "-" means that no inhibition has been found; conditions: I 10 ul
Experimental: as §1

[12] = tested on: Shigella flexneri NCTC 9950; design: key: --: "-" means that no inhibition has been found; conditions: I and B 10 ul
Experimental: as §1

[13] = tested on: Escherichia coli NCTC 11601; design: key: --: "-" means that no inhibition has been found; conditions: I 10 ul
Proteus mirabilis AU 87 = tested on: Proteus mirabilis AU 87; design: key: --: "-" means that no inhibition has been found; conditions: I and B 10 ul
[14] = tested on: Rhizobium leguminosarum 720; design: key: --: "-" means that no inhibition has been found

Compound: CC[C@H](C)[C@H](NC(=O)[C@H](CCCCN)NC(=O)[C@@H]1CCCN1C(=O)[C@H](CC(N)=O)NC(=O)[C@H](Cc1ccccc1)NC(=O)[C@@H]1CCCN1C(=O)CNC(=O)[C@H](CCC(N)=O)NC(=O)CNC(=O)[C@@H]1CCCN1C(=O)[C@H](Cc1ccccc1)NC(=O)[C@@H](NC(=O)[C@@H]1CCCN1C(=O)[C@H](Cc1ccccc1)NC(=O)[C@@H]1CCCN1C(=O)[C@H](CCCNC(=N)N)NC(=O)[C@H](CCCNC(=N)N)NC(=O)CNC(=O)[C@@H]1CCCN1C(=O)[C@H](CCC(N)=O)NC(=O)[C@@H]1CCCN1C(=O)[C@@H](NC(=O)[C@H](CC(N)=O)NC(=O)[C@@H]1CCCN1C(=O)[C@H](CC(C)C)NC(=O)[C@@H]1CCCN1C(=O)[C@@H](NC(=O)[C@@H](N)Cc1ccc(O)cc1)C(C)C)C(C)C)[C@@H](C)O)C(=O)N[C@@H](CCCCN)C(=O)N[C@@H](Cc1c[nH]c2ccccc12)C(=O)N1CCC[C@H]1C(=O)N[C@@H](CCC(N)=O)C(=O)NCC(=O)N[C@@H](Cc1ccc(O)cc1)C(=O)O [bee 9] (H-YVPLPNVPQPGRRPFPTFPGQGPFNPKIKWPQGY-OH)
- diameter of growth-inhibition zone (Salmonella Newport CD 94): --
- diameter of growth-inhibition zone [1]: --
- diameter of growth-inhibition zone [2]: --
- diameter of growth-inhibition zone [3]: --
- diameter of growth-inhibition zone [4]: 4 mm
- diameter of growth-inhibition zone [5]: --
- diameter of growth-inhibition zone [6]: 4 mm
- diameter of growth-inhibition zone [7]: --
- diameter of growth-inhibition zone [8]: 8 mm
- diameter of growth-inhibition zone [9]: --
- diameter of growth-inhibition zone (Shigella sonnei CQ26): --
- diameter of growth-inhibition zone [10]: --
- diameter of growth-inhibition zone [11]: --
- diameter of growth-inhibition zone (Shigella flexneri CP 87): --
- diameter of growth-inhibition zone [12]: --
- diameter of growth-inhibition zone [13]: --
- diameter of growth-inhibition zone (Proteus mirabilis AU 87): --
- diameter of growth-inhibition zone [14]: --
